Test [1] has as its target T1, human prostaglandin H2 synthase type II (COX-2) (Homo sapiens, UniProt P35354).
T1 sequence (P35354 18-604): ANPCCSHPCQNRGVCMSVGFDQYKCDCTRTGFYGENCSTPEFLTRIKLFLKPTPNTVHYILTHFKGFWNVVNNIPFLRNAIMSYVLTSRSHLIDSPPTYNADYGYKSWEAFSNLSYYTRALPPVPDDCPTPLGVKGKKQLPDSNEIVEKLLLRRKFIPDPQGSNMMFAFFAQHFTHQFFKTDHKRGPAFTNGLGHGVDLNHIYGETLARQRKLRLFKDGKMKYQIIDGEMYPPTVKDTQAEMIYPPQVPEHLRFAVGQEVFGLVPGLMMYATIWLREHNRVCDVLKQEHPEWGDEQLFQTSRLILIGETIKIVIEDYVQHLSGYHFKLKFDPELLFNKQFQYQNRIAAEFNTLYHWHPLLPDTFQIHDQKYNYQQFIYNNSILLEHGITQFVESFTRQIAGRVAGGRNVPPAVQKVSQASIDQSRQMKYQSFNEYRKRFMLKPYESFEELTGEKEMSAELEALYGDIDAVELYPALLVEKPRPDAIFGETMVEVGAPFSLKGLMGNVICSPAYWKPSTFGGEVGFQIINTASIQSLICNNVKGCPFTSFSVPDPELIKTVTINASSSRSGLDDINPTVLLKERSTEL
The test is described as follows: Human prostaglandin H2 synthase type II (COX-2) whole cell assay (ECV-304 cells, PGE2 by radioimmunoassay). The test is classed as cell-based. Further details: endogenous in cells; host or cells: ECV-304. The conditions noted are these: for inhibition at 10 µM / inhibition at 3 µM: read-out: P1: COX 2 Whole Cell % Inhibition; for IC50: read-out: P2: COX 2 Whole Cell IC50; for inhibition at 3 µM: @3 μM (superscript a). As to the method:
HUMAN PROSTAGLANDIN H2 SYNTHASE TYPE II (COX-2) WHOLE CELL ASSAY (MULTIPLE CONCENTRATIONS)
Procedures 1 and 2 were used to determine the ability of the compounds to inhibit human prostaglandin H2 synthase type II (COX-2) in a whole cell assay at multiple concentrations as follows:
Approximately 28 h later, […] PMA and […] ionomycin (both final concentrations) are added to each well and incubated for an additional 16 h. Vehicle or test compounds in the amount of […] are incubated with the cells for five minutes prior to initiation of COX-2 enzyme activity by the addition of 30 μM arachidonic acid. Ten minutes later, an aliquot of the supernatant is withdrawn and the amount of PGE2 present quantitated by radioimmunoassay. Activity, reported as percent inhibition of PGE2 produced, is calculated as follows: [formula]

For a further test, the target named is T2, COX-1 (Homo sapiens, UniProt P23219).
T2 construct: Remove the platelet-rich plasma (PRP) and dilute the PRP 1:20 with 0.9% NaCl; endogenous in cells; host or cells: human platelets (platelet-rich plasma of one volunteer)
T2 sequence (P23219 24-599): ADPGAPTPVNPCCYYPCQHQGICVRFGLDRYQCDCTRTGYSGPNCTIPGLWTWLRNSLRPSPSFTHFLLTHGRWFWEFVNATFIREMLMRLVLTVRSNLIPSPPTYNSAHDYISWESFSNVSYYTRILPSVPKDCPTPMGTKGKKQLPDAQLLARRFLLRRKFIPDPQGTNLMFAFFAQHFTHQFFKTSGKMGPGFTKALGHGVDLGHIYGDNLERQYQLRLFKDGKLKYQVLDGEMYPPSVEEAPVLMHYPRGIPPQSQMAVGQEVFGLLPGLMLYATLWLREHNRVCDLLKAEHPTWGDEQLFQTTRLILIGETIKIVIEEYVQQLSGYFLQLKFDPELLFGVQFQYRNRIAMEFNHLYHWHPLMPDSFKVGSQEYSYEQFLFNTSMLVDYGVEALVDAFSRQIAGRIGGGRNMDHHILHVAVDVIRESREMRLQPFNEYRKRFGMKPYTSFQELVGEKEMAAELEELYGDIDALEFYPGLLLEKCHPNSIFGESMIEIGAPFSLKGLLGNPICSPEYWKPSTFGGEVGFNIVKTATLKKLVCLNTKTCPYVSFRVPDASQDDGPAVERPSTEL
The test is described as follows: Human platelet thromboxane B2 production (via COX-1). The test is classed as cell-based. The conditions noted are these: human platelets, TXB2 production; read-out: P5: COX 1 Human Platelet IC50. The protocol:
HUMAN […] THROMBOXANE B2 PRODUCTION (via COX-1)
Procedure 5 was used to determine thromboxane B2 (TXB2) production (via COX-1) in human platelets as follows:
Draw blood from one volunteer into heparinized tubes then spin at RT for 15 to 20 minutes at 1,000 RPM. Remove the platelet-rich plasma (PRP) and dilute the PRP 1:20 with 0.9% NaCl containing 14.4U heparin/mL. Add 180 μL of the diluted PRP to each well of a 96-well plate and incubate at 37° C. for 5 minutes. Then add 20 μL vehicle (HBSS with 1% DMSO) or drug and incubate for 15 minutes at 37° C. Add 10 μl calcium ionophore and incubate 15 minutes at 37° C. Stop the reaction on slush ice for 5 minutes and assay supernatants immediately for TXB2 production via RIA or EIA.
Prepare all drugs at 10 mM in DMSO by diluting the drug in HBSS at a 1.100 ratio with 1% DMSO to 100 μM. Add 20 μl to PRP (1:10 ratio) to obtain 10 μM final concentration. The calcium ionophore is prepared by using 7 mg/mL free acid calcium ionophore in DMSO, which is warmed until the ionophore goes into solution. Just prior to use, dilute the solution 1:25 with HBSS.

For test [2], the target named is T1, human prostaglandin H2 synthase type II (COX-2). Briefly: Human prostaglandin H2 synthase type II (hCOX-2) homogenate assay (transfected COS-7 cells, PGE2 formation). The format is biochemical. The conditions noted are these: COS-7 homogenate; read-out: P4: COX 2 Homogenized Cell IC50. Further details: expressed in transfected cells; host or cells: COS-7 (African Green Monkey Kidney). The protocol: HUMAN PROSTAGLANDIN H2 SYNTHASE TYPE II (hCOX-2) HOMOGENATE ASSAY (SINGLE CONCENTRATION)
Procedures 3 and 4 were used to assess COX-2 activity in a homogenized cell assay as follows:
COS-7 (African Green Monkey Kidney) cells are maintained in a suitable medium, and are trypsinized and plated at a density of 1×10^6 cells/well of a 6 well plate prior to assay. Approximately 24 hours later, cells are transiently transfected with a plasmid containing the human COX-2 gene using the lipofectamine method. Two days later, the cell-free homogenate is prepared by subjecting the cells to a polytron followed by centrifugation at 9,000×g. COX activity, initiated by the addition of […] arachidonic acid to the 9,000×g supernatant, is monitored in the presence of vehicle or drug. Product (PGE2) formation is quantitated by radioimmunoassay. Activity, reported as percent inhibition of PGE2 produced, is calculated as follows: [formula]

These results are taken from US6083969A, “1,3- and 2,3-diarylcycloalkano and cycloalkeno pyrazoles as selective inhibitors of cyclooxygenase-2 and antiinflammatory agents” (Ortho-McNeil Pharaceutical, Inc., priority 1999, dated 2000).

As to `Clc1ccc(-c2nn(-c3ccc(Cl)cc3)c3c2CCC3)cc1` [Example 2, 1,3-Di-(4-Chlorophenyl)-cyclopenta-[1,2-d]-pyrazole], in test [1], the inhibition at 10 µM is 0%.

As for `Clc1ccc(-c2nn(-c3ccccc3)c3c2CCC3)cc1` [Example 3-1], the IC50 came to 10 µM at COX-1 and 2.59 µM in test [1].

As to `CS(=O)(=O)c1ccc(-n2nc3c(c2-c2ccc(Cl)cc2)CCC=C3)cc1` [Example 4b], the results for the IC50 (on COX-1; in test [1]) were more than 10 µM and 2.33 µM, respectively.

On to `CS(=O)(=O)c1ccc(-n2nc3c(c2-c2ccc(F)cc2)CCC=C3)cc1` [Example 5b], for which the IC50 in test [1] was 4.75 µM.

As to `c1ccc(-c2nn(-c3ccccc3)c3c2CCCC3)cc1` [Example 6, 1,3-Diphenyl-cyclohexa-[1,2-d]-pyrazole], the IC50 worked out at 0.49 µM on COX-1 and 0.57 µM in test [1].

On to `Clc1ccc(-c2c3c(nn2-c2ccccc2)CCCC3)cc1` [Example 6-1a, 3-(4-Chlorophenyl)-4,5,6,7-tetrahydro-2-phenyl-2H-indazole], for which the IC50 at COX-1 is more than 10 µM; in test [1] it was 0.57 µM.

In the case of `Clc1ccc(-c2nn(-c3ccccc3)c3c2CCCC3)cc1` [Example 6-1b, 3-(4-Chlorophenyl)-4,5,6,7-tetrahydro-1-phenyl-1H-indazole], the results for the IC50 (on COX-1; in test [1]) were 10 µM and 0.62 µM, respectively.

For `c1ccc(-c2nn(-c3ccccc3)c3c2CCCCC3)cc1` [Example 7, 1,3-Diphenyl-4,5,6,7,8,-[5H]cycloheptano-[1,2-d]-pyrazole], the values for the IC50 (at COX-1; in test [1]) were 0.12 µM and 0.17 µM, respectively.

As to `Clc1ccc(-c2nn(-c3ccc(Cl)cc3)c3c2CCCCC3)cc1` [Example 13, 3-(4-Chlorophenyl)-1-(4-chlorophenyl)-cycloheptano-[1,2-d]-pyrazole], in test [1], the inhibition at 10 µM was 3% and the IC50 was 10 µM.

On to `Fc1ccc(-n2nc(-c3ccc(Cl)cc3)c3c2CCCCC3)cc1` [Example 13-1b, 3-(4-Chlorophenyl)-1-(4-fluorophenyl)-cycloheptano-[1,2-d]-pyrazole], for which the IC50 at COX-1 is more than 10 µM. Further, in test [1], the inhibition at 10 µM was found to be 59% and the IC50 is more than 10 µM.

For `COc1ccc(-n2nc3c(c2-c2ccc(Cl)cc2)CCCCC3)cc1` [Example 13-1c], the IC50 was more than 10 µM on COX-1 and 19.5 µM in test [1].

Consider `CS(=O)(=O)c1ccc(-n2nc3c(c2-c2ccc(Cl)cc2)CCCCC3)cc1` [Example 13-1d], for which the IC50 at COX-1 was more than 10 µM; in test [1], 9.41 µM; in test [2] it was 1.5 µM.

As for `Cc1ccc(-n2nc3c(c2-c2ccc(Cl)cc2)CCCCC3)cc1` [Example 13-1e], the IC50 was determined as 10 µM on COX-1 and 1.22 µM in test [1].

In the case of `Clc1ccc(-c2c3c(nn2-c2ccccc2)CCCCC3)cc1` [Example 13-1f], the IC50 on COX-1 was determined as 5.5 µM; in test [1] it was 1.38 µM.

In the case of `COc1ccc(-n2nc3c(c2-c2ccc(F)cc2)CCCCC3)cc1` [Example 13-1g], the IC50 in test [1] worked out at 3.64 µM; in test [2], 8.1 µM.

Consider `CS(=O)(=O)c1ccc(-n2nc3c(c2-c2ccc(F)cc2)CCCCC3)cc1` [Example 13-1h], for which, in test [1], the IC50 turned out to be 10 µM.

As for `COc1ccc(-c2nn(-c3ccccc3)c3c2CCCCC3)cc1` [Example 13-2b, 3-(4-Methoxy)-1-phenyl-cycloheptano-[1,2-d]-pyrazole], the IC50 at COX-1 came out at 10 µM; in test [1], 1.24 µM.

On to `CS(=O)(=O)c1ccc(-n2nc3c(c2-c2ccc(F)cc2)CC2(CC3)OCCO2)cc1` [Example 30b], for which the values for the IC50 in test [1] and in test [2] were more than 10 µM and 21.7 µM, respectively.

As to `COc1ccc(-n2nc3c(c2-c2ccc(F)cc2)CC2(CC3)OCCO2)cc1` [Example 30c], the figures for the IC50 in test [1] and in test [2] were more than 10 µM and 20.3 µM, respectively.

Turning to `CS(=O)(=O)c1ccc(-n2nc3c(c2-c2ccc(Cl)cc2)CCCC3)cc1` [Example 30d], the IC50 was more than 10 µM on COX-1 and 0.82 µM in test [1].

Regarding `CS(=O)(=O)c1ccc(-n2nc(-c3ccc(Cl)cc3)c3c2CCCC3)cc1` [Example 30e], the inhibition at 3 µM in test [1] was 21%.

In the case of `CS(=O)(=O)c1ccc(-n2nc3ccccc3c2-c2ccc(Cl)cc2)cc1` [Example 32d], the results for the half-inhibitory concentration (IC50) (on COX-1; in test [1]) were 16 µM and 0.97 µM, respectively.

For `CS(=O)(=O)c1ccc(-c2c3ccccc3nn2-c2ccc(F)cc2)cc1` [Example 32e], the IC50 at COX-1 was more than 10 µM; in test [1], 0.32 µM.

Regarding `Fc1ccc(-n2nc(-c3ccc(Cl)cc3)c3c2-c2c([nH]c4ccc(F)cc24)CC3)cc1` [Example 32f], the figures for the IC50 (on COX-1; in test [1]) were 0.64 µM and 6.2 µM, respectively.

As to `CS(=O)(=O)c1ccc(-n2nc(-c3ccc(C(F)(F)F)cc3)c3c2C=CCC3)cc1` [Example 32g], the IC50 (at COX-1; in test [1]) was more than 10 µM each time.

Turning to `CS(=O)(=O)c1ccc(-n2nc(-c3ccc(F)cc3)c3c2C=CCC3)cc1` [Example 32h], the inhibition at 3 µM in test [1] was 13%.

Regarding `CS(=O)(=O)c1ccc(-n2nc(-c3ccc(F)cc3)c3ccccc32)cc1` [Example 32i], the inhibition at 3 µM in test [1] amounted to 12%.

As to `CS(=O)(=O)c1ccc(-n2nc3c(c2-c2ccc(Cl)cc2)CCC2OC32)cc1` (stereo not drawn) [Example 48d], the IC50 in test [1] is 9.58 µM.

Regarding `CS(=O)(=O)c1ccc(-n2nc3c(c2-c2ccc(F)cc2)CCC2OC32)cc1` (stereo not drawn) [Example 48e], the IC50 on COX-1 was more than 10 µM; in test [1], 6.28 µM.

Turning to `CS(=O)(=O)c1ccc(-n2nc3c(c2-c2ccc(Cl)cc2)CCC(O)C3)cc1` (stereo not drawn) [Example 49d], the results for the half-maximal inhibitory concentration (IC50) (on COX-1; in test [1]) were more than 10 µM and 10 µM, respectively.

Turning to `CS(=O)(=O)c1ccc(-n2nc3c(c2-c2ccc(Cl)cc2)CCC(=O)C3)cc1` [Example 52b], the half-inhibitory concentration (IC50) is more than 10 µM at COX-1 and 1.44 µM in test [1].

By inhibition is commonly meant the drop in the measured response relative to a control, in per cent. Usually IC50 stands for the midpoint of a concentration-inhibition curve.
